Experimental data reported in publication PMC10428001 (Cancer research, 2022).
“And” between values parts separate entries of the source, which are not always exact repeats. Identical values can stand only once. Like-named read-outs stand apart in the source and are kept apart here. Blank lines part the entries; values can stand above or below the molecule they belong to.

Assays:
[1] = test system: Ba/F3 cells WT EGFR (+ rhEGF); assay: Ba/F3 cell viability; assay type: cell-based; settings: read-out: IC50 (average ± SD)
[2] = test system: Ba/F3 cells HER2 A775_G776insYVMA; assay: Ba/F3 cell viability; assay type: cell-based; settings: read-out: IC50 (average ± SD)
[3] = test system: Ba/F3 cells HER2 P780_Y781insGSP; assay: Ba/F3 cell viability; assay type: cell-based; settings: read-out: IC50 (average ± SD)
[4] = test system: Ba/F3 cells HER2 G776delinsVC; assay: Ba/F3 cell viability; assay type: cell-based; settings: read-out: IC50 (average ± SD)
[5] = test system: Ba/F3 cells HER2 M774delinsWLV; assay: Ba/F3 cell viability; assay type: cell-based; settings: read-out: IC50 (average ± SD)
Ba/F3 cells HER2 S310F = assay: Ba/F3 cell viability; assay type: cell-based; settings: read-out: IC50 (average ± SD)
Ba/F3 cells HER2 L755S = assay: Ba/F3 cell viability; assay type: cell-based; settings: read-out: IC50 (average ± SD)
Ba/F3 cells HER2 V777L = assay: Ba/F3 cell viability; assay type: cell-based; settings: read-out: IC50 (average ± SD)
Ba/F3 cells HER2 V862I = assay: Ba/F3 cell viability; assay type: cell-based; settings: read-out: IC50 (average ± SD)
[6] = test system: Ba/F3 cells HER2 755_757LREdelinsRP; assay: Ba/F3 cell viability; assay type: cell-based; settings: read-out: IC50 (average ± SD)
[7] = test system: Ba/F3 cells HER2 amplification; assay: Ba/F3 cell viability; assay type: cell-based; settings: read-out: IC50 (average ± SD)
MCF7 = assay: Cancer cell viability; assay type: cell-based, human; settings: read-out: IC50 (average ± SD)
H1781 = assay: Cancer cell viability; assay type: cell-based, human; settings: read-out: IC50 (average ± SD)
H1819 = assay: Cancer cell viability; assay type: cell-based; settings: Homo sapiens, NCI-H1819, 72 h, read-out: IC50 (average ± SD)
Calu-3 [8] = assay: Cancer cell viability; assay type: cell-based; settings: Homo sapiens, Calu-3, 72 h, read-out: IC50 (average ± SD)
BT-474 = assay: Cancer cell viability; assay type: cell-based, human; settings: read-out: IC50 (average ± SD)
SKBR3 = assay: Cancer cell viability; assay type: cell-based, human; settings: read-out: IC50 (average ± SD)
NCI-N87 = assay: Cancer cell viability; assay type: cell-based, human; settings: read-out: IC50 (average ± SD)
[9] = test system: WT EGFR vs all HER2 mutants Ba/F3 cells; assay: Selectivity index from Ba/F3 IC50 ratios; assay type: cell-based; settings: average over HER2 mutants
[10] = test system: HER YVMA Ba/F3 cells containing a concurrent C805S mutation; assay: Ba/F3 cell viability, concurrent C805S mutation; assay type: cell-based; settings: HER YVMA Ba/F3 cells with concurrent C805S mutation
A-431 = assay: Cancer cell viability; assay type: cell-based, human; settings: read-out: IC50 (average ± SD); A-431, epidermoid, EGFR amp, 72 h
DFCI 429 = assay: Patient-derived cancer cell viability; assay type: cell-based, human; settings: read-out: IC50 (average ± SD)
DFCI 315 [11] = assay: Patient-derived tumor spheroid viability; assay type: cell-based, human; settings: read-out: IC50 (average ± SD); DFCI 315, NSCLC, HER2 ins, 6 days
[12] = Pharmacokinetic properties in mice; assay type: in vivo
Calu-3 tumors [13] = assay: Calu-3 xenograft efficacy; assay type: in vivo; settings: Calu-3 in NCr nude mice, oral, 39 days; JBJ-08-178-01 at 50 mg/kg BID
Calu-3 tumors [14] = assay: TUNEL assay in Calu-3 tumors; assay type: in vivo, NCr nude mice; settings: 50 mg/kg BID, 3 days dosing
Calu-3 [15] = assay: Caspase-3/7 activity, live-cell imaging; assay type: cell-based, human; settings: Calu-3, live-cell imaging, 3 days
DFCI 315 [16] = assay: AO/PI live/dead staining of tumor spheroids; assay type: cell-based, human; settings: DFCI 315 tumor spheroids, 5 days
WT HER2 = WT HER2 (Homo sapiens, UniProt P04626); settings: purified kinase 5 nmol/L, 100 μmol/L ATP
[17] = test system: Ba/F3 cells harboring various HER2 exon 20 insertions or amplification; settings: read-out: IC50 across all exon 20 mutants or amplification, cell growth
HER2 [18] = target: T1, HER2 (Homo sapiens, UniProt P04626); settings: Calu-3 cells, in the presence of cycloheximide
HER2 [19] = target: T1, HER2; settings: Calu-3 cells
HER2 mutant lung cancer = settings: phase II trial, patients with lung cancer harboring HER2 exon 20 mutations ref 34; cited from earlier work

T1 sequence (P04626 23-1255): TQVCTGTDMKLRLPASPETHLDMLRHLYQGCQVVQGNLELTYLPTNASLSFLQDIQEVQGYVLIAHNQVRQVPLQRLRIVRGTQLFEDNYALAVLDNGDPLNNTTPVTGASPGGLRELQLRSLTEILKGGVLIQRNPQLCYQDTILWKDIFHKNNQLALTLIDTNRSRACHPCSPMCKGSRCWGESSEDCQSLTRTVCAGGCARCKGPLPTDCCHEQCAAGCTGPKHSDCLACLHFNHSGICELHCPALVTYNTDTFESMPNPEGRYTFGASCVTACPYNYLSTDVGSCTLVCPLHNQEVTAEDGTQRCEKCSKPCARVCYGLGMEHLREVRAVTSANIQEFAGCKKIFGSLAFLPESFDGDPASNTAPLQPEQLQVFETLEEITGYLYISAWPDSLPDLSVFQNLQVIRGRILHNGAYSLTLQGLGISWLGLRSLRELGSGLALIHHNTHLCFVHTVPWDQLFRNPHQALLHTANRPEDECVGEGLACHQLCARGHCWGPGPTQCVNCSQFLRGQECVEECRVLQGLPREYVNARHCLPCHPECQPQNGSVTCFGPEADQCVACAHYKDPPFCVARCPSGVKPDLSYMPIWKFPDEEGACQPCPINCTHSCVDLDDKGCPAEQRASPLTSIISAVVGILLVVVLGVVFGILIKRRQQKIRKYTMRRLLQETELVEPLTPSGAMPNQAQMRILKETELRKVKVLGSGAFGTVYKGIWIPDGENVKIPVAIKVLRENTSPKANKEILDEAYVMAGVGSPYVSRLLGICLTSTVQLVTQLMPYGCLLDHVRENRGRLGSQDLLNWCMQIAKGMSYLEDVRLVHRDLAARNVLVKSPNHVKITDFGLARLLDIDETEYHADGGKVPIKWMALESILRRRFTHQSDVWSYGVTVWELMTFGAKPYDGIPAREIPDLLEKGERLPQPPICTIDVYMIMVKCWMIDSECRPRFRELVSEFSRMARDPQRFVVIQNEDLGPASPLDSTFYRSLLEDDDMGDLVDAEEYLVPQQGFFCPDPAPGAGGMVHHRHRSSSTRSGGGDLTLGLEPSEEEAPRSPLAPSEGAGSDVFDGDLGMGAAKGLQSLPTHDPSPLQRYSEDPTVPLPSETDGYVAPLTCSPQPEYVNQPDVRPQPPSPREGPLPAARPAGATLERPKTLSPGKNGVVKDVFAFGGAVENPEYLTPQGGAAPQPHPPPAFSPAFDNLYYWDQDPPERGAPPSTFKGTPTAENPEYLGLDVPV
Chain of WT HER2 (P04626 720-987 limits assumed): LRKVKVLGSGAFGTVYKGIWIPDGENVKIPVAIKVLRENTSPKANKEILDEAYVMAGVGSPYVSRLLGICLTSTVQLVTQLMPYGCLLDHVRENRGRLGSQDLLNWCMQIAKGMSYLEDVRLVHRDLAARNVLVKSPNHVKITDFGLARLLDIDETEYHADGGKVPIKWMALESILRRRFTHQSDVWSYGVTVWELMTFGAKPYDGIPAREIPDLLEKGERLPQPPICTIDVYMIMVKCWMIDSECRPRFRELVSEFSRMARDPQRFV

IC50 ([1]; Mus musculus, BaF3, 72 h): 302 ± 64.8 nM | IC50 ([2]; Mus musculus, BaF3, 72 h): 202 ± 70.2 nM | IC50 ([3]; Mus musculus, BaF3, 72 h): 210 ± 56 nM | IC50 ([4]; Mus musculus, BaF3, 72 h): 65.3 ± 49.7 nM | IC50 ([5]; Mus musculus, BaF3, 72 h): 621 ± 333 nM | IC50 (Ba/F3 cells HER2 S310F; Mus musculus, BaF3, 72 h): 530 ± 407 nM | IC50 (Ba/F3 cells HER2 L755S; Mus musculus, BaF3, 72 h): 845 ± 381 nM | IC50 (Ba/F3 cells HER2 V777L; Mus musculus, BaF3, 72 h): 13.1 ± 5.79 nM | IC50 (Ba/F3 cells HER2 V862I; Mus musculus, BaF3, 72 h): 336 ± 74.5 nM | IC50 ([6]; Mus musculus, BaF3, 72 h): 130 ± 18 nM | IC50 ([7]; Mus musculus, BaF3, 72 h): 177 ± 88.6 nM | IC50 (MCF7; Homo sapiens, MCF7, 72 h): 6790 nM | IC50 (H1781; Homo sapiens, NCI-H1781, 72 h): 2420 nM | IC50 (H1819): 341 ± 171 nM | IC50 (Calu-3 [8]): 248 ± 220 nM | IC50 (BT-474; Homo sapiens, BT-474, 72 h): 3780 nM | IC50 (SKBR3; Homo sapiens, SK-BR-3, 72 h): 5390 nM | IC50 (NCI-N87; Homo sapiens, NCI-N87, 72 h): 16.3 ± 6.6 nM
SMILES: CS(=O)(=O)CCNCc1ccc(-c2ccc3ncnc(Nc4ccc(OCc5cccc(F)c5)c(Cl)c4)c3c2)o1 [lapatinib]

IC50 ([1]; Ba/F3 WT EGFR (+ rhEGF 10 ng/mL), 3 days): 368 ± 103 nM | IC50 ([2]; Ba/F3 HER2 A775_G776insYVMA, 3 days): 13.6 ± 2.24 nM | IC50 ([3]; Ba/F3 HER2 P780_Y781insGSP, 3 days): 7.38 ± 2.66 nM | IC50 ([4]; Ba/F3 HER2 G776delinsVC, 3 days): 6.01 ± 2.94 nM | IC50 ([5]; Ba/F3 HER2 M774delinsWLV, 3 days): 21 ± 12 nM | IC50 (Ba/F3 cells HER2 S310F; Ba/F3 HER2 S310F, 3 days): 41.5 ± 13.4 nM | IC50 (Ba/F3 cells HER2 L755S; Ba/F3 HER2 L755S, 3 days): 140 ± 45.3 nM | IC50 (Ba/F3 cells HER2 V777L; Ba/F3 HER2 V777L, 3 days): 2.71 ± 0.41 nM | IC50 (Ba/F3 cells HER2 V862I; Ba/F3 HER2 V862I, 3 days): 284 ± 118 nM | IC50 ([6]; Ba/F3 HER2 755_757LREdelinsRP, 3 days): 7.24 ± 2.28 nM | IC50 ([7]; Ba/F3 HER2 amplification, 3 days): 15.3 ± 11.4 nM | IC50 (MCF7; MCF7, breast cancer, no ERBB mutation, 72 h): 967 ± 429 nM | IC50 (A-431): 378 ± 77.1 nM | IC50 (H1781; H1781, NSCLC, HER2 ins, 72 h): 151 ± 52.7 nM | IC50 (DFCI 429; DFCI 429, NSCLC, HER2 amp, 3 days): 252 ± 179 nM | IC50 (DFCI 315 [11]): 456 ± 117 nM | IC50 (BT-474; BT-474, breast cancer, HER2 amp, 72 h): 43.7 ± 11.1 nM | IC50 (SKBR3; SKBR3, breast cancer, HER2 amp, 72 h): 79.4 ± 56.5 nM | IC50 (NCI-N87; NCI-N87, HER2 amp, 72 h): 1.2 nM | AUCINF_obs ([12]; IV (2 mg/kg)): 323,166 min*ng/mL | AUClast ([12]; IV (2 mg/kg)): 317,601 min*ng/mL | CI_obs ([12]; IV (2 mg/kg)): 6.26 mL/min/kg | Cmax ([12]; IV (2 mg/kg)): 5.68 µM | MRTINF_obs ([12]; IV (2 mg/kg)): 1.42 h | T1/2 ([12]; IV (2 mg/kg)): 1.41 h | Tmax ([12]; IV (2 mg/kg)): 0.36 h | Vss_obs ([12]; IV (2 mg/kg)): 0.5 L/kg | AUCINF_obs ([12]; PO (10 mg/kg)): 243,219 min*ng/mL | AUClast ([12]; PO (10 mg/kg)): 166,787 min*ng/mL | CI_obs ([12]; PO (10 mg/kg)): 48.87 mL/min/kg | Cmax ([12]; PO (10 mg/kg)): 1.12 µM | F ([12]; PO (10 mg/kg)): 10% | T1/2 ([12]; PO (10 mg/kg)): 3.65 h | Tmax ([12]; PO (10 mg/kg)): 2.33 h | inhibition of WT HER2 in biochemical inhibition assays (WT HER2): potently inhibited WT HER2 | IC50 [17]: < 50 nM
SMILES: CCOc1cc2ncc(C#N)c(Nc3ccc(Oc4ccn5ncnc5c4)c(C)c3)c2cc1NC(=O)/C=C/CN(C)C [JBJ-08-178-01]
Selectivity index (IC50 ratio = WT EGFR ÷ all HER2 mutants) [9]: 6.8 and 6.83 | growth inhibition [10]: did not inhibit the growth | tumor growth (Calu-3 tumors [13]): comparable tumor regression with neratinib | cell apoptosis (TUNEL) (Calu-3 tumors [14]): significantly increased cell apoptosis compared with vehicle | apoptosis (caspase-3/7) (Calu-3 [15]): rapid and greater degree of apoptosis compared with cells treated with poziotinib, neratinib, or tucatinib | PI-positive dead cells (DFCI 315 [16]): significantly increased PI-positive dead cells | protein stability of HER2 (HER2 [18]): decreased protein stability of HER2 compared with vehicle | HER2 endocytosis (pHrodo fluorescence signal) (HER2 [19]): dramatic increase of fluorescence signal in the cytoplasm

IC50 ([2]; Mus musculus, BaF3, 72 h): 2.96 ± 1.29 nM | IC50 ([3]; Mus musculus, BaF3, 72 h): 5.17 ± 2.32 nM | IC50 ([4]; Mus musculus, BaF3, 72 h): 6.89 ± 6.66 nM | IC50 ([5]; Mus musculus, BaF3, 72 h): 8.75 ± 3.74 nM | IC50 (Ba/F3 cells HER2 S310F; Mus musculus, BaF3, 72 h): 14.1 ± 20.6 nM | IC50 (Ba/F3 cells HER2 L755S; Mus musculus, BaF3, 72 h): 83.2 ± 35.7 nM | IC50 (Ba/F3 cells HER2 V777L; Mus musculus, BaF3, 72 h): 3.13 ± 0.21 nM | IC50 (Ba/F3 cells HER2 V862I; Mus musculus, BaF3, 72 h): 22.1 ± 10.9 nM | IC50 ([6]; Mus musculus, BaF3, 72 h): 1.79 ± 1.39 nM | IC50 ([7]; Mus musculus, BaF3, 72 h): 2.75 ± 2.89 nM | IC50 (MCF7; Homo sapiens, MCF7, 72 h): 1970 nM | IC50 (A-431): 73.9 ± 60.9 nM | IC50 (H1781; Homo sapiens, NCI-H1781, 72 h): 169 ± 84.6 nM | IC50 (H1819): 29.5 ± 19.5 nM | IC50 (Calu-3 [8]): 162 ± 110 nM | IC50 (DFCI 429; Homo sapiens, 72 h): 163 ± 153 nM | IC50 (BT-474; Homo sapiens, BT-474, 72 h): 175 ± 136 nM | IC50 (SKBR3; Homo sapiens, SK-BR-3, 72 h): 117 ± 105 nM | IC50 (NCI-N87; Homo sapiens, NCI-N87, 72 h): 1.7 ± 0.2 nM
SMILES: CN(C)C/C=C/C(=O)Nc1cc2c(Nc3ccc(F)c(Cl)c3)ncnc2cc1O[C@H]1CCOC1 [afatinib]

SMILES: COc1cc2ncnc(Nc3ccc(F)c(Cl)c3)c2cc1NC(=O)/C=C/CN1CCCCC1 [dacomitinib]
overall response rate (HER2 mutant lung cancer): 12%
